Measurements taken from patent publication US20110015133A1, “PAX2 AND PAX8 AS TUMOUR TARGETS FOR IMMUNOLOGIC AND MOLECULAR TREATMENT STRATEGIES” (Charite-Universitatsmedizin Berlin, priority 2006, published 2011).

Experiments:
[1] = tested on: CD3+CD8+ lymphocytes from patients with renal cell and ovarian cancer; assay: Screening of PAX8 candidate epitopes for recognition by T-cells (IFNγ/TNFα) in carcinoma patients; type: cell-based, human; details: for recognition by T-cells of patients in peptide pools: 4 pools of three peptides each, every peptide in two pools
Text: To identify T-cell epitopes, they were screened for recognition by T-cells from patients with renal cell and ovarian cancer which are PAX8 positive tumours secreting cytokine IFNγ or TNFα in response to PAX 8 or control HIV peptide. By using 4 pools of three peptides each, every peptide was present in two pools.

[2] = tested on: T2-cells loaded with peptide; assay: Cr release assay, peptide-loaded T2-cells; type: cell-based; details: T-cells induced against peptide 3496 in a renal cancer patient; 10:1 E:T; label = peptide loaded on T2
Text: (§1) A panel of colorectal cancer cell lines has been characterized expressing both PAX2 and PAX8 to function as targets for recognition by specific T-cells (Table IV).

[3] = tested on: colon cancer cell line SW480; assay: Cr release assay, colon cancer cell line; type: cell-based
Text: as §1

[4] = tested on: T-cells of a patient with renal cancer; assay: Induction of a T-cell response in a cancer patient; design: species or system human
[5] = patient # 1 Ovarian, first line (IFNγ)
[6] = patient # 1 Ovarian, second line (TNFα)
[7] = patient # 2 Ovarian, first line (IFNγ)
[8] = patient # 2 Ovarian, second line (TNFα)
[9] = patient # 3 Ovarian, first line (IFNγ)
[10] = patient # 3 Ovarian, second line (TNFα)
[11] = patient # 4 Ovarian, first line (IFNγ)
[12] = patient # 4 Ovarian, second line (TNFα)
[13] = patient # 5 Ovarian, first line (IFNγ)
[14] = patient # 5 Ovarian, second line (TNFα)
[15] = patient # 6 Ovarian, first line (IFNγ)
[16] = patient # 6 Ovarian, second line (TNFα)
[17] = patient # 7 Renal cell, first line (IFNγ)
[18] = patient # 7 Renal cell, second line (TNFα)
[19] = patient # 8 Renal cell, first line (IFNγ)
[20] = patient # 8 Renal cell, second line (TNFα)
[21] = patient # 9 Renal cell, first line (IFNγ)
[22] = patient # 9 Renal cell, second line (TNFα)

A L L S G R E M V (ALLSGREMV; listed as Homo sapiens) [Peptide 359-367]
PAX8 candidate epitope recognized (both pools containing it reactive) [1, 5]: no
PAX8 candidate epitope recognized (both pools containing it reactive) [1, 6]: no
PAX8 candidate epitope recognized (both pools containing it reactive) [1, 7]: no
PAX8 candidate epitope recognized (both pools containing it reactive) [1, 8]: no
PAX8 candidate epitope recognized (both pools containing it reactive) [1, 9]: no
PAX8 candidate epitope recognized (both pools containing it reactive) [1, 10]: no
PAX8 candidate epitope recognized (both pools containing it reactive) [1, 11]: no
PAX8 candidate epitope recognized (both pools containing it reactive) [1, 12]: no
PAX8 candidate epitope recognized (both pools containing it reactive) [1, 13]: no
PAX8 candidate epitope recognized (both pools containing it reactive) [1, 14]: no
PAX8 candidate epitope recognized (both pools containing it reactive) [1, 15]: no
PAX8 candidate epitope recognized (both pools containing it reactive) [1, 16]: no
PAX8 candidate epitope recognized (both pools containing it reactive) [1, 17]: no
PAX8 candidate epitope recognized (both pools containing it reactive) [1, 18]: no
PAX8 candidate epitope recognized (both pools containing it reactive) [1, 19]: no
PAX8 candidate epitope recognized (both pools containing it reactive) [1, 20]: no
PAX8 candidate epitope recognized (both pools containing it reactive) [1, 21]: no
PAX8 candidate epitope recognized (both pools containing it reactive) [1, 22]: no

N L S T H Q T Y P V (NLSTHQTYPV; listed as Homo sapiens) [Peptide 288-298]
PAX8 candidate epitope recognized (both pools containing it reactive) [1, 5]: no
PAX8 candidate epitope recognized (both pools containing it reactive) [1, 6]: no
PAX8 candidate epitope recognized (both pools containing it reactive) [1, 7]: no
PAX8 candidate epitope recognized (both pools containing it reactive) [1, 8]: no
PAX8 candidate epitope recognized (both pools containing it reactive) [1, 9]: no
PAX8 candidate epitope recognized (both pools containing it reactive) [1, 10]: no
PAX8 candidate epitope recognized (both pools containing it reactive) [1, 11]: no
PAX8 candidate epitope recognized (both pools containing it reactive) [1, 12]: no
PAX8 candidate epitope recognized (both pools containing it reactive) [1, 13]: no
PAX8 candidate epitope recognized (both pools containing it reactive) [1, 14]: no
PAX8 candidate epitope recognized (both pools containing it reactive) [1, 15]: no
PAX8 candidate epitope recognized (both pools containing it reactive) [1, 16]: no
PAX8 candidate epitope recognized (both pools containing it reactive) [1, 17]: no
PAX8 candidate epitope recognized (both pools containing it reactive) [1, 18]: no
PAX8 candidate epitope recognized (both pools containing it reactive) [1, 19]: no
PAX8 candidate epitope recognized (both pools containing it reactive) [1, 20]: no
PAX8 candidate epitope recognized (both pools containing it reactive) [1, 21]: no
PAX8 candidate epitope recognized (both pools containing it reactive) [1, 22]: no

S L S S S A F L D L (SLSSSAFLDL; listed as Homo sapiens) [Peptide 323-333]
recognition by T-cells of patients in peptide pools [1]: recognized in both pools
PAX8 candidate epitope recognized (both pools containing it reactive) [1, 5]: yes
PAX8 candidate epitope recognized (both pools containing it reactive) [1, 6]: no
PAX8 candidate epitope recognized (both pools containing it reactive) [1, 7]: no
PAX8 candidate epitope recognized (both pools containing it reactive) [1, 8]: no
PAX8 candidate epitope recognized (both pools containing it reactive) [1, 9]: no
PAX8 candidate epitope recognized (both pools containing it reactive) [1, 10]: no
PAX8 candidate epitope recognized (both pools containing it reactive) [1, 11]: no
PAX8 candidate epitope recognized (both pools containing it reactive) [1, 12]: no
PAX8 candidate epitope recognized (both pools containing it reactive) [1, 13]: no
PAX8 candidate epitope recognized (both pools containing it reactive) [1, 14]: no
PAX8 candidate epitope recognized (both pools containing it reactive) [1, 15]: no
PAX8 candidate epitope recognized (both pools containing it reactive) [1, 16]: no
PAX8 candidate epitope recognized (both pools containing it reactive) [1, 17]: no
PAX8 candidate epitope recognized (both pools containing it reactive) [1, 18]: no
PAX8 candidate epitope recognized (both pools containing it reactive) [1, 19]: no
PAX8 candidate epitope recognized (both pools containing it reactive) [1, 20]: no
PAX8 candidate epitope recognized (both pools containing it reactive) [1, 21]: no
PAX8 candidate epitope recognized (both pools containing it reactive) [1, 22]: no

T L D D G K A T L (TLDDGKATL; listed as Homo sapiens) [Peptide 270-278]
PAX8 candidate epitope recognized (both pools containing it reactive) [1, 5]: no
PAX8 candidate epitope recognized (both pools containing it reactive) [1, 6]: no
PAX8 candidate epitope recognized (both pools containing it reactive) [1, 7]: no
PAX8 candidate epitope recognized (both pools containing it reactive) [1, 8]: no
PAX8 candidate epitope recognized (both pools containing it reactive) [1, 9]: no
PAX8 candidate epitope recognized (both pools containing it reactive) [1, 10]: no
PAX8 candidate epitope recognized (both pools containing it reactive) [1, 11]: no
PAX8 candidate epitope recognized (both pools containing it reactive) [1, 12]: no
PAX8 candidate epitope recognized (both pools containing it reactive) [1, 13]: no
PAX8 candidate epitope recognized (both pools containing it reactive) [1, 14]: no
PAX8 candidate epitope recognized (both pools containing it reactive) [1, 15]: no
PAX8 candidate epitope recognized (both pools containing it reactive) [1, 16]: no
PAX8 candidate epitope recognized (both pools containing it reactive) [1, 17]: no
PAX8 candidate epitope recognized (both pools containing it reactive) [1, 18]: no
PAX8 candidate epitope recognized (both pools containing it reactive) [1, 19]: no
PAX8 candidate epitope recognized (both pools containing it reactive) [1, 20]: no
PAX8 candidate epitope recognized (both pools containing it reactive) [1, 21]: no
PAX8 candidate epitope recognized (both pools containing it reactive) [1, 22]: no

T L P G Y P P H I (TLPGYPPHI; listed as Homo sapiens) [Peptide 370-378]
PAX8 candidate epitope recognized (both pools containing it reactive) [1, 5]: no
PAX8 candidate epitope recognized (both pools containing it reactive) [1, 6]: no
PAX8 candidate epitope recognized (both pools containing it reactive) [1, 7]: no
PAX8 candidate epitope recognized (both pools containing it reactive) [1, 8]: no
PAX8 candidate epitope recognized (both pools containing it reactive) [1, 9]: no
PAX8 candidate epitope recognized (both pools containing it reactive) [1, 10]: no
PAX8 candidate epitope recognized (both pools containing it reactive) [1, 11]: no
PAX8 candidate epitope recognized (both pools containing it reactive) [1, 12]: no
PAX8 candidate epitope recognized (both pools containing it reactive) [1, 13]: no
PAX8 candidate epitope recognized (both pools containing it reactive) [1, 14]: no
PAX8 candidate epitope recognized (both pools containing it reactive) [1, 15]: no
PAX8 candidate epitope recognized (both pools containing it reactive) [1, 16]: no
PAX8 candidate epitope recognized (both pools containing it reactive) [1, 17]: no
PAX8 candidate epitope recognized (both pools containing it reactive) [1, 18]: no
PAX8 candidate epitope recognized (both pools containing it reactive) [1, 19]: no
PAX8 candidate epitope recognized (both pools containing it reactive) [1, 20]: no
PAX8 candidate epitope recognized (both pools containing it reactive) [1, 21]: no
PAX8 candidate epitope recognized (both pools containing it reactive) [1, 22]: no

T L P G Y P P H V [Peptide 3496]
specific cytolysis (killing) of peptide-loaded T2-cells [2]: 32%
cytolysis of SW480 inhibited by cold target ([3]; T-cells induced against peptide 3496, with cold target): 10%
specific cytolysis of colon cancer cell line SW480 ([3]; T-cells induced against peptide 3496 in a renal cancer patient): 28%
induction of specific T-cells against the peptide [4]: able to induce specific T-cells

T L T P S N T P L (TLTPSNTPL; listed as Homo sapiens) [Peptide 277-285]
recognition by T-cells of patients in peptide pools [1]: recognized in both pools
PAX8 candidate epitope recognized (both pools containing it reactive) [1, 5]: no
PAX8 candidate epitope recognized (both pools containing it reactive) [1, 6]: no
PAX8 candidate epitope recognized (both pools containing it reactive) [1, 7]: no
PAX8 candidate epitope recognized (both pools containing it reactive) [1, 8]: no
PAX8 candidate epitope recognized (both pools containing it reactive) [1, 9]: no
PAX8 candidate epitope recognized (both pools containing it reactive) [1, 10]: no
PAX8 candidate epitope recognized (both pools containing it reactive) [1, 11]: no
PAX8 candidate epitope recognized (both pools containing it reactive) [1, 12]: no
PAX8 candidate epitope recognized (both pools containing it reactive) [1, 13]: no
PAX8 candidate epitope recognized (both pools containing it reactive) [1, 14]: no
PAX8 candidate epitope recognized (both pools containing it reactive) [1, 15]: no
PAX8 candidate epitope recognized (both pools containing it reactive) [1, 16]: no
PAX8 candidate epitope recognized (both pools containing it reactive) [1, 17]: no
PAX8 candidate epitope recognized (both pools containing it reactive) [1, 18]: no
PAX8 candidate epitope recognized (both pools containing it reactive) [1, 19]: no
PAX8 candidate epitope recognized (both pools containing it reactive) [1, 20]: no
PAX8 candidate epitope recognized (both pools containing it reactive) [1, 21]: no
PAX8 candidate epitope recognized (both pools containing it reactive) [1, 22]: yes
